Experimental findings from ChEMBL document CHEMBL4017476, “Synthesis of novel 5,6-dehydrokawain analogs as osteogenic inducers and their action mechanisms” (Bioorg Med Chem Lett, 2017) are described below.

The test system of series [1] is MC3T3-E1. Put plainly: Osteogenic activity in mouse MC3T3-E1 cells assessed as increase in ALP activity at 10 uM measured after 4 days relative to control. It counts as functional, cell-based.
Series [2] relates to MC3T3-E1. Description: Osteogenic activity in mouse MC3T3-E1 cells assessed as increase in mineralization at 10 uM measured after 10 days by alizarin red S staining based assay. It counts as functional, cell-based.
In series [3] the test system is MC3T3-E1. Description: Cytotoxicity against mouse MC3T3-E1 cells assessed as cell number at 30 uM measured after 4 days by WST-8 assay relative to control. The series is classed as cell-based. The conditions noted are these: mc3t3-e1, 96 h.
Series [4] concerns MC3T3-E1. Put plainly: Osteogenic activity in mouse MC3T3-E1 cells assessed as increase in ALP activity at 30 uM measured after 4 days relative to control. It counts as functional.
Series [5] deals with MC3T3-E1. Put plainly: Osteogenic activity in mouse MC3T3-E1 cells assessed as increase in mineralization at 30 uM measured after 10 days by alizarin red S staining based assay. It counts as functional, cell-based.
Series [6] has as its system RAW264. Description: Inhibition of RANKL-stimulated osteoclastogenesis in mouse RAW264 cells assessed as reduction in TRAP activity at 20 uM measured after 72 hrs by microscopic analysis. The series is classed as functional, cell-based.
Series [7] concerns MC3T3-E1. Description: Osteogenic activity in mouse MC3T3-E1 cells assessed as increase in mineralization at 30 uM measured after 10 days in presence of BMP2 inhibitor noggin by alizarin red S staining based assay. The series is classed as functional, cell-based.
The test system of series [8] is MC3T3-E1. Put plainly: Osteogenic activity in mouse MC3T3-E1 cells assessed as increase in mineralization at 30 uM measured after 10 days in presence of type-1 BMP receptor kinase inhibitor LDN-193189 by alizarin red S staining based assay. The series is classed as functional, cell-based.
The species named for series [9] is Mus musculus. Description: Activation of BMP signaling pathway in mouse MC3T3-E1 cells assessed as increase in Runx2 mRNA expression after 2 days by SYBR green-dye based RT-PCR method. The series is classed as cell-based.
Series [10] is filed under the species Mus musculus. Description: Activation of BMP signaling pathway in mouse MC3T3-E1 cells assessed as increase in Osterix mRNA expression after 2 days by SYBR green-dye based RT-PCR method. The series is classed as cell-based.
For series [11], the species on record is Mus musculus. Put plainly: Activation of BMP signaling pathway in mouse MC3T3-E1 cells assessed as increase in Alpl mRNA expression after 2 days by SYBR green-dye based RT-PCR method. It counts as cell-based.
The species named for series [12] is Mus musculus. Description: Activation of BMP signaling pathway in mouse MC3T3-E1 cells assessed as increase in Bglap mRNA expression after 2 days by SYBR green-dye based RT-PCR method. It counts as cell-based.
The species named for series [13] is Mus musculus. Description: Activation of BMP signaling pathway in mouse MC3T3-E1 cells assessed as increase in Runx2 mRNA expression at 10 uM after 2 days by SYBR green-dye based RT-PCR method relative to control. The series is classed as cell-based.
The species entered for series [14] is Mus musculus. Put plainly: Activation of BMP signaling pathway in mouse MC3T3-E1 cells assessed as increase in Osterix mRNA expression at 10 uM after 2 days by SYBR green-dye based RT-PCR method relative to control. The series is classed as cell-based.
The species entered for series [15] is Mus musculus. Description: Activation of BMP signaling pathway in mouse MC3T3-E1 cells assessed as increase in Alpl mRNA expression at 10 uM after 2 days by SYBR green-dye based RT-PCR method relative to control. It counts as cell-based.
For series [16], the species on record is Mus musculus. Put plainly: Activation of BMP signaling pathway in mouse MC3T3-E1 cells assessed as increase in Bglap mRNA expression at 10 uM after 2 days by SYBR green-dye based RT-PCR method relative to control. It counts as cell-based.
Series [17] concerns the target T1, MAP kinase p38 (Mus musculus) (UniProt P47811+O08911+Q9WUI1+Q9Z1B7). Description: Induction of p38 MAPK phosphorylation in mouse MC3T3-E1 cells assessed as ratio of phosphorylated p38 to unphosphorylated p38 protein level at 30 uM measured after 5 mins by Western blot analysis relative to control. It counts as cell-based.
In series [18] the target is T2, SMAD1/5/9 (Mus musculus) (UniProt P70340+P97454+Q9JIW5). Put plainly: Induction of Smad1/5/8 phosphorylation in mouse MC3T3-E1 cells assessed as ratio of phosphorylated Smad1/5/8 to actin beta protein level at 30 uM measured after 5 mins by Western blot analysis relative to control. It counts as cell-based.
The test system of series [19] is MC3T3-E1. Put plainly: Osteogenic activity in mouse MC3T3-E1 cells assessed as increase in mineralization at 30 uM measured after 10 days in presence of p38 MAPK inhibitor SB203580 by alizarin red S staining based assay. It counts as functional, cell-based.
In series [20] the test system is RAW264. Description: Inhibition of RANKL-stimulated osteoclastogenesis in mouse RAW264 cells assessed as reduction in TRAP-positive multinucleated cells at 20 uM measured after 72 hrs by TRAP staining based microscopic analysis. The series is classed as functional, cell-based.
Series [21] addresses T1, MAP kinase p38 (Mus musculus). Put plainly: Induction of p38 MAPK phosphorylation in mouse MC3T3-E1 cells assessed as ratio of phosphorylated p38 to unphosphorylated p38 protein level at 30 uM measured after 15 mins by Western blot analysis relative to control. The series is classed as cell-based.
Series [22] shares this target. Put plainly: Induction of p38 MAPK phosphorylation in mouse MC3T3-E1 cells assessed as ratio of phosphorylated p38 to unphosphorylated p38 protein level at 30 uM measured after 30 mins by Western blot analysis relative to control. The series is classed as cell-based.
The target in series [23] is T2, SMAD1/5/9 (Mus musculus). Description: Induction of Smad1/5/8 phosphorylation in mouse MC3T3-E1 cells assessed as ratio of phosphorylated Smad1/5/8 to actin beta protein level at 30 uM measured after 15 mins by Western blot analysis relative to control. It counts as cell-based.
Series [24] deals with T2, SMAD1/5/9 (Mus musculus). Description: Induction of Smad1/5/8 phosphorylation in mouse MC3T3-E1 cells assessed as ratio of phosphorylated Smad1/5/8 to actin beta protein level at 30 uM measured after 30 mins by Western blot analysis relative to control. The series is classed as cell-based.

Active and inactive are the calls of the source. No cut-off for these calls is given here.

For the compound `COc1cc(/C=C/c2ccc(C(C)(C)C)cc2)oc(=O)c1`, the result in series [1] and in series [2] was Active. Moreover, the fold change (FC) in series [3] fell in the range of 0.85 to 1.25.
As for `COc1cc(/C=C/c2ccc(F)cc2)oc(=O)c1`, the result in [4] and in [5] was inactive. Moreover, the fold change (FC) in series [3] was in the range of 0.85 to 1.25.
Regarding `C#Cc1ccc(/C=C/c2cc(OC)cc(=O)o2)cc1`, the “fold change (FC)” value in series [4] was 1.32 - 2.87; in series [3], 0.85 to 1.25. The outcome in series [5] was Active.
Take `COc1cc(/C=C/c2ccccc2C)oc(=O)c1`: the result in series [4] and in series [5] was Active. The fold change (FC) in [3] is 0.85 to 1.25.
Consider `CCc1ccccc1/C=C/c1cc(OC)cc(=O)o1`, for which the result in series [4] and in [5] was inactive. Besides, in [3], the fold change (FC) fell in the range of 0.85 to 1.25.
For `COc1cc(/C=C/C2CC2)oc(=O)c1`, the result in series [4] and in series [5] was inactive. Moreover, in series [3], the fold change (FC) is 0.85 to 1.25.
As to `CCCc1ccc(/C=C/c2cc(OC)cc(=O)o2)cc1`, in series [3], the fold change (FC) was in the range of 0.85 to 1.25.
Turning to `COc1cc(/C=C/c2ccc(C(F)(F)F)cc2)oc(=O)c1`, the figures for the “fold change (FC)” value in [4] and in series [3] were 1.32 - 2.87 and 0.85 to 1.25, respectively. For the same compound, in [5], the result was Active.
As to `CCc1cccc(/C=C/c2cc(OC)cc(=O)o2)c1`, the outcome in series [4] and in series [5] was Active. Further, in series [3], the fold change (FC) lay within 0.85 to 1.25.
On to `COc1cc(/C=C/c2ccsc2)oc(=O)c1`, for which the result in series [4] and in series [5] was inactive. Moreover, the fold change (FC) in [3] fell in the range of 0.85 to 1.25.
Consider `CC(C)Oc1ccc2c(=O)c(-c3ccccc3)coc2c1`, for which the inhibition result in series [6] was “Active”.
For the compound `CCCCc1ccc(/C=C/c2cc(OC)cc(=O)o2)cc1`, the outcome in series [7], in series [8] and in series [19] was inactive. In addition, the inhibition entry in series [6] and in series [20] was “Active” throughout. In addition, the outcome in series [4], in series [5], in [1] and in [2] was Active. The fold change (FC) in [3] was 0.85 to 1.25; in [13], 1.42; in series [14], 2.41; in series [15] it was 2.09; in [16], 1.33. In addition, the Activity result in series [9], in series [10], in series [11] and in [12] was “Dose-dependent effect” in each case. The Ratio in [17] is 1.6; in series [18], 1.1; in series [21], 1.5; in series [22], 1.1; in series [23], 1.1; in [24], 1.1.
